The subject of one assay is mouse CFU-g. Put plainly: CFU-g assay (colony assay), mouse. Format: cell-based. The note with it: potency as G-CSF mimetic. How it is done: (§1) In determining potency as G-CSF mimetics, the following assay is employed: CFU-g Assay
(§2) The compounds of present invention are tested for potency as G-CSF mimetics in a CFU-g assay, an example of which is described in King AG, Talmadge J., Badger AM, Pelus LM. Regulation of colony stimulating activity production from bone marrow stromal cells by the hematoregulatory peptide, HP-5. Exp. Hematol. 20:223-228, 1992.

A further assay relates to human CFU-g. Put plainly: CFU-g assay (colony assay), human. Format: cell-based. The note with it: potency as G-CSF mimetic. On the procedure:
as §1, §2

The structures appear in SMILES notation.

For `O=c1n2c(nc3n1[C@]1(c4ccccn4)n4c(nc5nc6ccccc6n5c4=O)N[C@]1(c1ccccn1)N3)nc1ccccc12` [Compound A, 7a, 17a-bis(2-pyridyl)-16,19-dioxo-5,7a, 10,16,17a, 19-hexahydro-benzimidazo[2′,1′:4,5][1,3,5]triazino[1,2-a]benzimidazo[2″,1″:4′,5′][1,3,5]triazino[1′,2′:1,2]imidazo[4,5-d]imidazole], in the assay with mouse CFU-g, the “mouse CFU-g, colony assay/% Gmax @ 3 uM” value came out at 43 % Gmax. In addition, the “human CFU-g, colony assay/% Gmax @ 3 uM” value in the assay on human CFU-g came to 41 % Gmax.

Values taken from patent US6346531B1, “G-CSF mimetics” (SmithKline Beecham Corporation, priority 1998, dated 2002).
